Data: ChEMBL document CHEMBL4613261, “Metabolic and Pharmaceutical Aspects of Fluorinated Compounds” (J Med Chem, 2020)
Values after ≈ are worked out from the molar mass of the structure shown. Values joined by “and” are separate entries in the source; they are usually repeats but may differ in a detail not shown here. Equal entries are not always repeated.

How the values were obtained:
[1] = Drug metabolism in Sprague-Dawley rat heart assessed as fluoro-acetic acid metabolite level at 100 mg/kg, po measured after 2 to 8 hrs; type: ADME, organism-based; conditions: in vivo
[2] = Drug metabolism in Sprague-Dawley rat kidney assessed as fluoro-acetic acid metabolite level at 100 mg/kg, po measured after 2 to 8 hrs; type: ADME, organism-based; conditions: in vivo
[3] = Drug metabolism in Sprague-Dawley rat liver assessed as fluoro-acetic acid metabolite level at 100 mg/kg, po measured after 2 to 8 hrs; type: ADME, organism-based; conditions: in vivo
[4] = Acute toxicity in rat measured after 4 hrs; conditions: in vivo
Adenosylhomocysteinase = target: T1, Adenosylhomocysteinase (Rattus norvegicus, UniProt P10760); test: Reversible inhibition of rat liver S- adenosyl-L-homocysteine hydrolase using SAH as substrate by spectrophotometric method
T1 sequence (P10760 whole entry): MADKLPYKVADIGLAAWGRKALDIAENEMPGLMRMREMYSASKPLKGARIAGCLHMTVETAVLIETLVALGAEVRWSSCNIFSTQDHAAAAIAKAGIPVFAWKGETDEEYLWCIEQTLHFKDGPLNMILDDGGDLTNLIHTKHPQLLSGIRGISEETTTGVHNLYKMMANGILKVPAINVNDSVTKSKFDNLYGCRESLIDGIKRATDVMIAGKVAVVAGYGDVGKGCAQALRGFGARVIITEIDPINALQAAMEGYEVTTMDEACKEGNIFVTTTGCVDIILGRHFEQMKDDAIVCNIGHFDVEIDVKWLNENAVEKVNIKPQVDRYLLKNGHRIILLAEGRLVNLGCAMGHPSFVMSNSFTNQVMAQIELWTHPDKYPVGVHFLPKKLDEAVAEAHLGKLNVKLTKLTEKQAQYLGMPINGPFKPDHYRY

[5] = Drug recovery in rat excreta assessed as metabolically unchanged parent compound at 100 mg/kg, po; type: ADME, organism-based; conditions: read-out: Drug recovery
[6] = target: T2, MGST1 (microsomal glutathione S-transferase 1) (Rattus norvegicus, UniProt P08011); test: Substrate activity at MGST1 in rat liver microsomes assessed as substrate depletion at 50 uM incubated for 30 mins in presence of GSH by liquid chromatography/mass spectrometry; type: ADME; conditions: read-out: Activity
T2 sequence (P08011 whole entry): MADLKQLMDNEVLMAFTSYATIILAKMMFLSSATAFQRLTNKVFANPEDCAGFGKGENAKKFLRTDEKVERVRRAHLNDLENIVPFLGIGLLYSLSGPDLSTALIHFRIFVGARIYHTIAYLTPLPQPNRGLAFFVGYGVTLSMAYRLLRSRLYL

Homo sapiens = test: Induction of fluoride toxicity in human assessed as fluoride level in plasma at 200 mg, po BID administered for at least 6 months (reference value: 2.54 uM); type: organism-based; conditions: in vivo
[7] = Lipophilicity, log P of the compound by C18 reverse phase HPLC; type: physicochemical
[8] = target: Alanine racemase, biosynthetic (Escherichia coli K-12, UniProt P0A6B4); test: Substrate activity at Escherichia coli B alanine racemase assessed as partition ratio by measuring ratio of turnover rate to inactivation rate
Sequence of Alanine racemase, biosynthetic (P0A6B4 whole entry): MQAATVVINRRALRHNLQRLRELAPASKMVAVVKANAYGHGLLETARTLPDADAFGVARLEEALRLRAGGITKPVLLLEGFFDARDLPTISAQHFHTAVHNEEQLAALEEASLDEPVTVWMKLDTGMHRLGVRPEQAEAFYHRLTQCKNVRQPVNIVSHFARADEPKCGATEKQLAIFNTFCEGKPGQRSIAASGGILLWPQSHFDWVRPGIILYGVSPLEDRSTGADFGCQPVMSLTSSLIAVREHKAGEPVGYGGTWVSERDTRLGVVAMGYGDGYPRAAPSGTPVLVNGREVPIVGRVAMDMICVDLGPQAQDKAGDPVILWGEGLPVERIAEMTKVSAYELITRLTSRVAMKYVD

[9] = Apparent half life in rat blood; type: ADME, tissue-based
[10] = Apparent half life in rat brain; type: ADME, tissue-based
[11] = Intrinsic clearance in human liver microsome; type: ADME; conditions: liver microsomes, read-out: CLH
[12] = Protein binding in human plasma
Lysine decarboxylase = target: T3, Lysine decarboxylase (Hafnia alvei, UniProt P05033); test: Time dependent inhibition of Hafnia alvei lysine decarboxylase using L-lysine by Kitz-Wilson analysis
T3 sequence (P05033 whole entry): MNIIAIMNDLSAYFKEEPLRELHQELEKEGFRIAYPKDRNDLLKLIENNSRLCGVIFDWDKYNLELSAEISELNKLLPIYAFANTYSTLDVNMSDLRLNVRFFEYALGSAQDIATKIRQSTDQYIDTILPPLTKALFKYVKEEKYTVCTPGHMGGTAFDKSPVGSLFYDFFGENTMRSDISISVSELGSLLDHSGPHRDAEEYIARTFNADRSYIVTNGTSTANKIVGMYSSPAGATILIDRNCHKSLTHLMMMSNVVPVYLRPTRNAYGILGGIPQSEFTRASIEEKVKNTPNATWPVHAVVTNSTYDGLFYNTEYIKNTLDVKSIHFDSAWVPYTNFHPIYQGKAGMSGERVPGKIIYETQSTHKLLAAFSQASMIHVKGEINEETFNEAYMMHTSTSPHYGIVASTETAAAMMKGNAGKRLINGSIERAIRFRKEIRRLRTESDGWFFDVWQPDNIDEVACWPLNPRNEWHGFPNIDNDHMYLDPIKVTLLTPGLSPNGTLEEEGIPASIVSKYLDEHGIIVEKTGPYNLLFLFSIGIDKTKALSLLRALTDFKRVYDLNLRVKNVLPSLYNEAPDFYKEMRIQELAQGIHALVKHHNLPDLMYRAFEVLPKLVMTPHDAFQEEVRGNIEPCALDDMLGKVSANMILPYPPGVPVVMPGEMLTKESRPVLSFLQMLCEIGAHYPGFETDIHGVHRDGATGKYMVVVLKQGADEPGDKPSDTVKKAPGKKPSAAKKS

[13] = Toxicity in Wistar rat measured for 6 days; conditions: in vivo, 144 h
[14] = Substrate activity at GSTZ (unknown origin) assessed as rate of drug conversion to S-(carboxymethyl)-glutathione per mg of protein; type: ADME; conditions: human
[15] = Aqueous solubility of the compound in pH 6.8 buffer; conditions: pH 6.8 buffer
[16] = Lipophilicity, log P of the compound; conditions: octanol/water
[17] = Substrate activity at recombinant human GSTZ1C expressed in Escherichia coli M15 assessed as rate of catalysis per mg of protein; type: ADME
[18] = target: T4, Maleylacetoacetate isomerase (Rattus norvegicus, UniProt P57113); test: Substrate activity at GSTZ1 in rat liver cytosol assessed as defluorination activity; type: ADME, subcellular
T4 sequence (P57113 whole entry): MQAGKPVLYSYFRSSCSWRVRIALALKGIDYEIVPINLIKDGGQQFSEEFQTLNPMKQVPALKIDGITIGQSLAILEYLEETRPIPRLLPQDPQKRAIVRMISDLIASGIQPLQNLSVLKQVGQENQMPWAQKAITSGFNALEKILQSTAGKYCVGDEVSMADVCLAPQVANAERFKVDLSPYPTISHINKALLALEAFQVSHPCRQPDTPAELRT

[19] = Toxicity in dog; design: species or system Canis lupus familiaris; conditions: in vivo
[20] = Prodrug conversion in rat blood assessed as total fraction of didanosine formation by HPLC analysis; type: ADME, tissue-based
[21] = Prodrug conversion in rat blood assessed as rate of didanosine formation by HPLC analysis; type: ADME, tissue-based
Adenosine deaminase [22] = target: T5, Adenosine deaminase (Rattus norvegicus, UniProt Q920P6); test: Prodrug conversion in rat blood assessed as rate of adenosine deaminase-mediated didanosine formation by HPLC analysis; type: ADME, tissue-based
T5 sequence (Q920P6 whole entry): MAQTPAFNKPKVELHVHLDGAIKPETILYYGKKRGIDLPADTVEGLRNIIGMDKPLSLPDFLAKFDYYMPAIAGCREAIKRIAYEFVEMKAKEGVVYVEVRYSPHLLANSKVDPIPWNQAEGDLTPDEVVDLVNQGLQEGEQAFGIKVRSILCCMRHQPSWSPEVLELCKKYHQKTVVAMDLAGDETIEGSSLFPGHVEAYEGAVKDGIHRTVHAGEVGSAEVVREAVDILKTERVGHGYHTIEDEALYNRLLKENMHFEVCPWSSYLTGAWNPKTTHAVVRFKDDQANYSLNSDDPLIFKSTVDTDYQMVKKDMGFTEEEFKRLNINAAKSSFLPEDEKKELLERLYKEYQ

Adenosine deaminase [23] = target: T5, Adenosine deaminase; test: Prodrug conversion in rat brain assessed as rate of adenosine deaminase-mediated didanosine formation by HPLC analysis; type: ADME, tissue-based; conditions: in vivo
[24] = Prodrug conversion in rat brain assessed as total fraction of didanosine formation by HPLC analysis; type: ADME, tissue-based; conditions: in vivo
[25] = Prodrug conversion in rat brain assessed as rate of didanosine formation by HPLC analysis; type: ADME, tissue-based; conditions: in vivo
[26] = Half life in rat; type: ADME; conditions: in vivo
[27] = Half life in dog; type: ADME, Canis lupus familiaris; conditions: in vivo
[28] = Half life in human hepatocytes; type: ADME, cell-based, Hepatocyte

Question: With `C[C@H](NC(=O)[C@H](Cc1ccccc1)NC(=O)OCc1ccccc1)C(=O)CF` as the compound, how does the Drug metabolism [1] read?
Answer: 0.2 to 0.9 µg/g

Question: And the Drug metabolism [2]?
Answer: 0.2 to 0.9 µg/g

Question: And the Drug metabolism [3]?
Answer: 0.2 to 0.9 µg/g

Question: With `FC(F)=C(F)F` [TETRAFLUOROETHYLENE] as the compound, how does the Activity [4] read?
Answer: 40000 ppm

Question: Which Ki (Adenosylhomocysteinase) does the source give for `Nc1ncnc2c1ncn2[C@@H]1C=C(CO)[C@@H](O)[C@H]1O` [NEOPLANOCIN A] here?
Answer: 0.00839 µM

Question: Which dose excreted [5] does the source give for `N#Cc1c[nH]cc1-c1cccc2c1OC(F)(F)O2` [FLUDIOXONIL] here?
Answer: 12%

Question: For `Cc1cccnc1Cl`, which metabolised at 0.5 h, 50 µM [6] is on record?
Answer: 14%

Question: For `C[C@@H](c1ncncc1F)[C@](O)(Cn1cncn1)c1ccc(F)cc1F` [VORICONAZOLE], which Activity (Homo sapiens) is on record?
Answer: 14.32 µM

Question: For `COc1cccnc1Cl`, which metabolised at 0.5 h, 50 µM [6] is on record?
Answer: 17%

Question: For `CC(F)(F)Oc1ccccc1`, which logP [7] is on record?
Answer: 2.87

Question: For `N[C@@H](C(=O)O)C(F)F`, which Ratio [8] is on record?
Answer: 2600

Question: With `Clc1cccnc1Cl` as the compound, how does the metabolised at 0.5 h, 50 µM [6] read?
Answer: 26%

Question: For `OC[C@@H]1CC[C@H](n2cnc3c(I)ncnc32)O1`, which half-life [9] is on record?
Answer: 28.2 h

Question: And the half-life [10]?
Answer: 2.97 h

Question: Which metabolised at 0.5 h, 50 µM [6] does the source give for `Nc1cccnc1Cl` here?
Answer: < 5%

Question: For `Nc1nc2ccc(OC(F)(F)F)cc2s1` [RILUZOLE], which microsomal CLint [11] is on record?
Answer: 38.9 µL/min/mg

Question: And the PPB [12]?
Answer: 85%

Question: For `C=C(F)[C@](N)(CCCCN)C(=O)O`, which Ki (Lysine decarboxylase) is on record?
Answer: 630 µM

Question: Which LD50 [13] does the source give for `OCC(F)(F)F` [TRIFLUOROETHANOL] here?
Answer: 440 mg/kg and 210 mg/kg

Question: For `CC(Br)C(=O)O` (racemic), which K [14] is on record?
Answer: 2142 nmol/min

Question: With `FC(F)(F)c1cccnc1Cl` as the compound, how does the metabolised at 0.5 h, 50 µM [6] read?
Answer: 31%

Question: For `O=[N+]([O-])c1cn2c(n1)OC[C@@H](OCc1ccc(SC(F)(F)F)cc1)C2`, which microsomal CLint [11] is on record?
Answer: < 25 µL/min/mg

Question: What about the fraction unbound [12] of the same compound?
Answer: 0.4

Question: What about the solubility [15] of the same compound?
Answer: 5 µM (≈ 1.88 µg/mL)

Question: What about the logP [16] of the same compound?
Answer: 2.7

Question: Which K [14] does the source give for `O=C(O)CF` [FLUOROACETATE] here?
Answer: 172 nmol/min

Question: And the K [17]?
Answer: 210 nmol/min

Question: And the Activity [18]?
Answer: 3%

Question: And the LD [19]?
Answer: 0.05 mg/kg

Question: With `Oc1cccnc1Cl` as the compound, how does the metabolised at 0.5 h, 50 µM [6] read?
Answer: < 5%

Question: With `OC[C@@H]1CC[C@H](n2cnc3c(F)ncnc32)O1` as the compound, how does the Fm [20] read?
Answer: 0.54

Question: What about the K [21] of the same compound?
Answer: 0.13 min⁻¹

Question: And the K (Adenosine deaminase [22])?
Answer: 0.15 min⁻¹

Question: And the K (Adenosine deaminase [23])?
Answer: 1.51 min⁻¹

Question: And the half-life [9]?
Answer: 0.0583 h

Question: What about the Fm [24] of the same compound?
Answer: 1

Question: What about the K [25] of the same compound?
Answer: 0 min⁻¹

Question: What about the half-life [10] of the same compound?
Answer: 0.00767 h

Question: Which half-life [26] does the source give for `N[C@H]1C[C@@H](C(=O)O)CC1=C(F)F` [CPP-115 FREE BASE] here?
Answer: 1 to 2.3 h

Question: What about the half-life [27] of the same compound?
Answer: 1 to 2.3 h

Question: And the half-life [28]?
Answer: 20 h
